What all share (format): in vivo
The test system of assay [1] is C57BL/6 mice. In words: Cisplatin-induced renal injury in mice: serum CRE and BUN. Particulars: extracts at 1000 mg/kg; compared to cisplatin-stimulated group, p<0.001. Here is the method: Determination of biochemical parameters Serum creatinine and serum urea are assessed using colorimetric kits according to manufacturer's instructions. Kits of the former markers are purchased from (HUMAN Diagnostics Worldwide, Magdeburg, Germany) with a chemical analyzer (Roche Diagnostics, Cobas Mira Plus, Rotkreuz, Switzerland).
(§1) Seven-to-eight-week-old male C57BL/6 mice are obtained from the BioLASCO Taiwan Co., Ltd. (Taipei, Taiwan). The animals are housed in Plexiglas cages at a constant temperature of 22±1° C. and a relative humidity of 55±5% on a 12 h dark-light cycle for at least 2 weeks before the experiment. Animals are provided food and water ad libitum. All experimental procedures are performed according to the guidelines of the Institutional Animal Ethics Committee, and the protocol is approved by the Committee for the Purpose of Control and Supervision of Experiments on Animals.
Renal fibrosis is induced via multiple injections of low-dose cisplatin. Intraperitoneal injections of cisplatin (5 mg/kg/injection; P4394, Sigma-Aldrich, St Louis, Mo.) are performed at 0, 1, and 3 weeks, for a total of 3 injections. Mice are sacrificed at 6 weeks after the first dose of cisplatin (n=6). To analyze the effects of samples, mice are given daily intraperitoneal injections for 7 days, starting from 4 weeks after first dose of cisplatin, and sacrificed at […] (n=6).

For assay [2], the system named is C57BL/6 mice. Briefly: Cisplatin-induced renal injury in mice: kidney histopathology (H&E). To be noted: extract at 1000 mg/kg; cisplatin-stimulated mice.
From the text: Kidney histopathology The anterior portion of the […] from each mouse is fixed in 10% formaldehyde phosphate buffer, embedded in paraffin, cut into 5 μm sections, and then treated with an hematoxylin and eosin (H&E) stain for histological examination under the light microscopy (Nikon, ECLIPSE, TS100, Tokyo, Japan). Images are captured with a digital camera (NIS-Elements D 2.30, SP4, Build 387) at an original magnification of 400×.
as §1
(§2) Renal fibrosis is induced via multiple injections of low-dose cisplatin. Intraperitoneal injections of cisplatin (5 mg/kg/injection; P4394, Sigma-Aldrich, St Louis, Mo.) are performed at 0, 1, and 3 weeks, for a total of 3 injections. Mice are sacrificed at 6 weeks after the first dose of cisplatin (n=6). […]

In assay [3] the test system is TNF-α, IL-1β, IL-6 and TGF-β. Briefly: Cisplatin-induced renal injury in mice: serum pro-inflammatory cytokines by ELISA. Particulars: extract at 1000 mg/kg; after cisplatin challenge. The procedure: TNF-α, IL-6, and IL-1β cytokines in serum The serum concentration of the pro-inflammatory cytokines (i.e. tumor necrosis factor-α (TNF-α), interleukin-6 (IL-6), and IL-1β) in serum are assessed with relevant enzyme-linked immunosorbent assay (ELISA) kits (Biosource International Inc., Sunnyvale, Calif., USA), based on the manufacturer's instructions.
as §1, §2
In general terms: In an ELISA, binding on a coated surface is turned into a signal by an enzyme label.

In another assay the test system is SD rats. In words: CCl4-induced chronic liver fibrosis in rat. The procedure:
Blood samples are collected at week 0, 2, 4, 6, and 8. The animals are sacrificed at the end of the 8-week for histopathological examinations. FIGS. 7A, 7B, 7C depict delta weight, liver weight, and liver/body-weight ratio, respectively.
The level of clinical biochemistry such as aspartate aminotransferase (AST), alanine aminotransferase (ALT), is evaluated to determine the enzymatic activities of the livers of the control groups and the experimental groups (shown in FIGS. 8A-8C).

On to `C=C1C(=O)O[C@H]2/C=C(\C)CC3C=C(CC/C=C(\C)CC[C@H]12)C(=O)O3` (stereo partly drawn) [AR100-DS1, Ovatodiolide], for which the “renal protection: normalization of serum CRE and BUN” value with C57BL/6 mice [1] is recorded as “significant renal protection effect”. Moreover, the “necrosis and inflammatory infiltrating cells in the kidney tissue (H&E)” value in the assay on C57BL/6 mice [2] was “significantly improved necrosis and inflammatory infiltrating cells in the kidney tissue”. For the same molecule, the “NO, TNF-α, IL-1β, and IL-6 production in serum” value in assay [3] is “improved NO, TNF-α, IL-1β, and IL-6 production”. In addition, the “serum AST and ALT level” value in the assay with SD rats (50 mg/kg, W6 and W8, compared with the vehicle group) is “less AST and ALT increases”. Besides, the liver appearance entry with SD rats (50 mg/kg, after 8 weeks of CCl4 induction) is “smooth surface without atrophy and sclerosis”. In the assay with SD rats (8 weeks of CCl4 induction), the “overall effect on CCl4-induced liver injury” value is recorded as “potential to partially repair CCl4-induced liver injury”.
